Literature values in patent publication US11731951B1, “Water reactivity with natural products” (King Faisal University, priority 2023, dated 2023).

Test system: Gram-positive bacteria, including multi-resistant and vancomycin-resistant strains
Conditions: from "Abyssomicins—A 20-Year Retrospective View"

In the case of C[C@@H]1C[C@H](C)C(=O)/C=C/C2[C@@H](O)[C@H]3OC4=C(C(=O)O[C@@]42C[C@H]3C)C1=O [abyssomicin C], the antibiotic activity is listed as “high antibiotic activity”.
For CC1CC(C)C(=O)C2=C3OC4C(C)CC3(OC2=O)C(/C=C\C1=O)C4O (centres unmarked) [atrop-abyssomicin C], the antibiotic activity is given as “high antibiotic activity”.
